Data: US20150284393A1, “METHODS FOR TREATING EYE DISORDERS” (PRISM PHARMA CO., LTD, priority 2012, published 2015)

Legend:
[1] = test system: rat model of laser-induced choroidal neovascularization; test: rat model of laser-induced choroidal neovascularization (CNV); assay type: in vivo, Brown Norway rats; settings: for average CNV lesion size vs vehicle controls: bilateral intravitreal on Days 3 and 10; for anti-angiogenic or vascular disruption activity: rat model of CNV, intravitreal
Text: The objective of this study was to assess the anti-angiogenic/vascular disrupting effects of Compound A, an alpha helix mimetic β-catenin inhibitor compound, and Compound C, the active metabolite of Compound A, in a rat model of laser-induced choroidal neovascularization. Compound A is 4-(((6S,9S,9aS)-1-(benzylcarbamoyl)-2,9-dimethyl-4,7-dioxo-8-(quinolin-8-ylmethyl)octahydro-1H-pyrazino[2,1-c][1,2,4]triazin-6-yl)methyl)phenyl dihydrogen phosphate. Compound C is (6S,9S,9aS)-N-benzyl-6-(4-hydroxybenzyl)-2,9-dimethyl-4,7-dioxo-8-(quinolin-8-ylmethyl)octahydro-1H-pyrazino[2,1-c][1,2,4]triazine-1-carboxamide.
For compound A, an 80 mg/ml solution of 4-(((6S,9S,9aS)-1-(benzylcarbamoyl)-2,9-dimethyl-4,7-dioxo-8-(quinolin-8-ylmethyl)octahydro-1H-pyrazino[2,1-c][1,2,4]triazin-6-yl)methyl)phenyl dihydrogen phosphate was prepared in sterile PBS. This solution was further diluted 1:4 to make a 20 mg/ml solution. The 20 mg/ml solution was diluted 1:4 to make a 5 mg/ml solution.
For compound C, a solution containing 0.5% NaCMC and 0.5% Polysorbate 80 (Tween 80) was prepared in USP grade water. 20 mg of (6S,9S,9aS)-N-benzyl-6-(4-hydroxybenzyl)-2,9-dimethyl-4,7-dioxo-8-(quinolin-8-ylmethyl)octahydro-1H-pyrazino[2,1-c][1,2,4]triazine-1-carboxamide was dissolved in 1 ml (using displacement pipette) of USP grade PEG400 in a glass vial. Slight heating and sonication/vortexing were performed if necessary. The glass vial containing the 20 mg/ml compound C solution was placed on a magnetic stir plate and an equal volume (1 ml) of the CMC/Tween 80 solution was added to the compound C/PEG400 solution (slowly in drop-wise fashion during continuous mixing with a stir bar). The resultant formulation was a clear solution containing 10 mg/ml compound C, 50% PEG400, 0.25% NaCMC, and 0.25% Tween 80.
Laser application to produce CNV lesions. Animals were dilated with 1% Cyclogyl solution and protected from light. Following observable dilation, the animals were sedated with ketamine/xylazine. The fundus of sedated animals was observed and recorded using a Micron III small animal funduscope (Phoenix Research). Laser treatments were performed using a thermal laser which is connected through the Micron III custom laser attachment. A total of 3 lesions per eye were placed using a wavelength of 520 nm.
Fundus images were recorded to confirm that the laser had successfully produced a bubble through the Bruch's membrane. It was expected that 5-10% of all laser spots would not develop any quantifiable CNV.
Intravitreal injections. Animals were anesthetized with ketamine/xylazine and the test compound was then injected in a volume of 5 μl into the vitreous through the pars plana using a Hamilton syringe and a 32 gauge needle. Following injection, the animals received an equal amount of topical antibiotic ointment on both eyes. Any eyes displaying signs of hemorrhage following laser application or intravitreal injection were excluded from analysis.
Fluorescein angiography. Animals were anesthetized with ketamine/xylazine and then received an IP injection of 10% Fluorescein Sodium at 1 μl/gram of body weight. Fundus images were then captured as 8-bitt TIFF files using the Micron III and exciter/barrier filters for a target wavelength of 488 nm. Standard color fundus photos were also captured for each eye.
Imaging and lesion quantification. All TIFF images were quantified using computerized image-analysis software (ImageJ, NIH, USA). Lesions were then individually traced free-hand in order to quantify the area in pixels and the color fundus photos were used as a reference for lesion location. Areas of avascularization in the center of lesions were excluded from area calculations. In the case of a hemorrhage or two lesions overlapping these lesions were excluded from analysis.
Statistical Analyses. Statistical Analyses were performed with Graphpad Prism software (version 5) using one-way analysis of variance (ANOVA) with a Tukey's post-hoc test for significance.
Animals. […]

[2] = test system: rat model of proliferative vitreoretinopathy (PVR) following retinal detachment; test: rat model of proliferative vitreoretinopathy (PVR) following retinal detachment; assay type: in vivo, Long Evans rats
Text: The objective of this study was to assess the anti-fibrotic efficacy of Compound A, an alpha helix mimetic β-catenin inhibitor compound, in a rat model of proliferative vitreoretinopathy (PVR) following retinal detachment. Compound A is 4-(((6S,9S,9aS)-1-(benzylcarbamoyl)-2,9-dimethyl-4,7-dioxo-8-(quinolin-8-ylmethyl)octahydro-1H-pyrazino[2,1-c][1,2,4]triazin-6-yl)methyl)phenyl dihydrogen phosphate.
The well defined normal consequences of retinal detachment in this animal model are the hyperproliferation of retinal glial cells (primarily Muller cells), the recruitment of immune cells, and the formation of glial scars. An effective treatment would result in less glial scarring.
Retinal detachments were created by infusing a dilute solution (0.25%) of Healon into the subretinal space of the right eyes in 16 Long Evans rats. Twenty (20) mg/ml of Compound A in 5 microliters were injected intravitreally immediately after the detachment surgery in 8 animals. The other 8 animals received an intravitreal injection of the vehicle as a control. The left eyes served as naive controls. Seven days after detachment, settling of the retina occurs causing folds to form in the retina. All animals were euthanized using CO2, 7 days after retinal detachment.
Following euthanasia, the retinas were fixed in 4% paraformaldehyde for 24 hours. Three retinal regions approximately 3 mm square were sampled from within each detached retina as well as from control retinas. The retinas were embedded in agarose and vibratomed at 100 microns in thickness. Sections were immunolabeled with antibodies to intermediate filament proteins (vimentin) and proliferating cells (phosphohistone H3). A marker for immune cells (isolectin B4) and a nuclear stain (Hoescht) was also used. All 4 probes were added to the same sections (i.e. quadruple labeling).
The sections were imaged using an Olympus FV1000 confocal microscope. Digital images were aquired and used to determine 1) the number and size of subretinal glial scars 2) the number of dividing cells and their cell type e.g. of immune or glial origin 3) whether microglia were “activated” and 4) if macrophages were present.
The data were analyzed using a two-tailed T-test. Mean differences with a P values less than 0.05 were considered significant.
Scar frequency was calculated by dividing the total number of scars noted in each retina by the total area examined. The average scar size/length was calculated by dividing the total scar length in a given retina by the total number of scars counted in that retina.
Immunohistochemistry. Qualitative assessment of animals (4 saline and 4 Compound A treated) were evaluated for glial scarring, cell proliferation, and immune cell infiltrates. Three retinal regions from rats 5-8 (PVR+saline) and 13-16 (PVR+Compound A) were excised from the eye, sectioned, and labeled with antibodies (˜25 sections from each eye were surveyed).

Row | SMILES | size of the lesions ([1]; 50 μg intravitreal) | average CNV lesion size vs vehicle controls ([1]; Day 15, 50 μg, p<0.05, FIG. 4A) | anti-angiogenic or vascular disruption activity [1] | average CNV lesion size vs vehicle controls ([1]; Day 15, 400 μg, p<0.01, FIG. 4A) | average CNV lesion size vs vehicle controls ([1]; Day 22, 100 μg, p<0.01, FIG. 4B) | CNV lesion size, dose effect ([1]; two higher tested doses (100 μg or 400 μg), 25 μg not significant) | dividing immune cells (immune cell response) following retinal detachment ([2]; 20 mg/ml in 5 microliters intravitreally immediately after detachment, 7 days after detachment, vs vehicle, FIG. 1A) | number of Muller cells/mm ([2]; 20 mg/ml in 5 microliters intravitreally, 7 days after detachment, two-tailed T-test, P<0.05 significant, FIG. 1C) | increase in number of proliferating glial cells following retinal detachment ([2]; 20 mg/ml in 5 microliters intravitreally, 7 days after detachment, vs vehicle, FIG. 1B) | increase in number of proliferating Muller cells following retinal detachment ([2]; 20 mg/ml in 5 microliters intravitreally, 7 days after detachment, vs vehicle, FIG. 1C) | increase in number of proliferating astrocytes following retinal detachment ([2]; 20 mg/ml in 5 microliters intravitreally, 7 days after detachment, vs vehicle, FIG. 1D) | frequency of glial scar formation (total number of scars / total area examined) ([2]; 20 mg/ml in 5 microliters intravitreally, 7 days after detachment, vs vehicle, FIG. 2A) | average scar size/length (total scar length / number of scars) ([2]; 20 mg/ml in 5 microliters intravitreally, 7 days after detachment, vs vehicle, FIG. 2B) | subretinal gliosis (glial scarring), vimentin labeled Muller cell processes extending into the subretinal space, immunohistochemistry ([2]; qualitative assessment, 4 treated animals (rats 13-16) vs 4 saline, FIGS. 3C-3D)
1 | C[C@H]1[C@H]2N(C(=O)CN(C)N2C(=O)NCc2ccccc2)[C@@H](Cc2ccc(O)cc2)C(=O)N1Cc1cccc2cccnc12 [Compound C, (6S,9S,9aS)-N-benzyl-6-(4-hydroxybenzyl)-2,9-dimethyl-4,7-dioxo-8-(quinolin-8-ylmethyl)octahydro-1H-pyrazino[2,1-c][1,2,4]triazine-1-carboxamide] | significant impact | statistically significant | demonstrated efficacy | – | – | – | – | – | – | – | – | – | – | –
2 | C[C@H]1[C@H]2N(C(=O)CN(C)N2C(=O)NCc2ccccc2)[C@@H](Cc2ccc(OP(=O)(O)O)cc2)C(=O)N1Cc1cccc2cccnc12 [Compound A, 4-(((6S,9S,9aS)-1-(benzylcarbamoyl)-2,9-dimethyl-4,7-dioxo-8-(quinolin-8-ylmethyl)octahydro-1H-pyrazino[2,1-c][1,2,4]triazin-6-yl)methyl)phenyl dihydrogen phosphate] | – | – | demonstrated efficacy | statistically significant | demonstrated significance | demonstrated statistical significance | did not have any effect | significantly affected | largely attenuated | largely attenuated | largely attenuated | significantly reduced | significant reduction | no glial scarring was noted
